# Patent publication US20110034378A1, “Pharmaceutical Combinations Comprising Specified Age Breaker and Further Drugs, I.A. Antihypertensive Drugs, Antidiabetic Drugs Etc” (priority 2008, published 2011)
# Tested on: obese Zucker spontaneously hypertensive fatty rats (Ob-ZSF1)
# Assay: Effect of compound 27 on diabetic cardiomyopathy and nephropathy in Ob-ZSF1 rats
# Assay type: in vivo, rat
# Procedure: Aim: The aim of this study was to study the effect of compound 27 on diabetic cardiomyopathy and nephropathy in obese Zucker spontaneously hypertensive fatty rats (Ob-ZSF1), an animal model of diabetes with progressive cardiac and renal dysfunction.
# Method: Male Ob-ZSF1 rats were implanted with telemetry transmitters. At the age of 3 months, rats were divided into two treatment groups, compound 27, 9 mg/kg ip bid and 27 mg/kg ip, bid and a control group to which vehicle was administered until study termination at 34 weeks. 0.5% salt was added in drinking water from […] of treatment for 6 weeks in order to accelerate the vasculopathy. At fixed predetermined time intervals, blood pressure, urine albumin and creatinine were monitored during the study. Terminal measurement of cardiac function was performed in the same animals using Millar Pressure Volume (P-V) System. PV loops were captured to establish cardiac functional parameters and differences in end systolic pressure volume relationship (ESPVR) and end diastolic pressure volume relationship (EDPVR) at different preloads. Heart and kidney were collected from same set of animals at termination for gross and microscopic histopathological examination and for gene expression studies.
# [1] = 9 and 27 mg/kg ip bid, terminal Millar P-V measurement, vs vehicle control
# [2] = longitudinally over time, compared to control
# [3] = persistent severe hyperglycemia
smiles,measurement,setting,value
"CS(=O)(=O)NNC(=O)c1ccc[n+](CC(=O)c2cccs2)c1.[Cl-] [compound 27, 1-(2-thien-2′-yl-2-oxoethyl)-3-(methanesulfonyl hydrazinocarbonyl)pyridinium chloride]",Relative heart wet weight,27 mg/kg group,significantly lesser
same,"damage to cardiomyocytes, microscopic examination","27 mg/kg group, compared to the control group",less severe damage
same,cardiac output,"9 and 27 mg/kg ip bid, terminal Millar P-V measurement at 34 weeks, vs vehicle control",significant improvement
same,diastolic relaxation,[1],more efficient
same,systolic contractile function,[1],better
same,ventricular compliance,[1],improved
same,peripheral resistance (afterload),"9 and 27 mg/kg ip bid, vs vehicle control",significant reduction
same,renal pathology observed microscopically,compared to control,less severe
same,Inflammatory cytokine Interleukin-6 (IL-6),compound 27 treated groups,reduced significantly
same,Renal function,"higher dose group, compared to control",distinct improvement
same,Percent increase from baseline for albumin to creatinine ratio,[2],significantly reduced
same,Percent increase from baseline for serial creatinine excretion,[2],significantly reduced
same,Percent increase from baseline for urinary albumin excretion,[2],significantly reduced
same,Brain natriuretic peptide (BNP) expression,"marker of cardiac failure, compared to control animals",reduced
same,cardiac function (conclusion),[3],clearly preserved
same,renal dysfunction (conclusion),[3],reduced the severity
same,BP,"telemetry, compound 27 treated animals",reduction
